Where two headings read alike, the source gives them in different places.
What was measured:
[1] = GC-MS analysis of perfume leaked out of the capsules during one month storage in concentrated liquid detergent; type: physicochemical; conditions: for Percentage of ingredient having leaked out of the capsules during one month storage, % In concentrated Liquid Detergent 22° C. / Percentage of ingredient having leaked out of the capsules during one month storage, % In concentrated Liquid Detergent 37° C.: perfume of Example 6 encapsulated per Example 2, capsules at 1.25% in Tide 2x Concentrated HE Free; for Percentage of ingredient having leaked out of the capsules during one month storage, % In concentrated Liquid Detergent 22° C. / Percentage of perfume having leaked out of the capsules upon one month storage, % In Concentrated Liquid Detergent at 22° C.: one month at 22° C.; for Percentage of ingredient having leaked out of the capsules during one month storage, % In concentrated Liquid Detergent 37° C. / Percentage of perfume having leaked out of the capsules upon one month storage, % In Concentrated Liquid Detergent at 37° C.: one month at 37° C.; for Percentage of perfume having leaked out of the capsules upon one month storage, % In Concentrated Liquid Detergent at 22° C. / Percentage of perfume having leaked out of the capsules upon one month storage, % In Concentrated Liquid Detergent at 37° C.: perfume of Example 9 encapsulated per Example 2, capsules at 1.25% in Tide 2x Concentrated HE Free
Description: The concentrated liquid detergent base was a commercially available Tide® 2× Concentrated HE Free of perfume & dye (trademark of Procter and Gamble, USA).
The concentrated liquid detergent base was the commercially available Tide® 2× Concentrated HE Free of perfume & dye (trademark of Procter and Gamble, USA).

[2] = LogP of the perfume ingredients
[3] = GC-MS analysis of perfume leaked out of the capsules during one month storage in concentrated fabric softener; type: physicochemical; conditions: for Percentage of ingredient having leaked out of the capsules during one month storage, % In fabric softener 37° C.: perfume of Example 6 encapsulated per Example 2, capsules at 1.25%; for Percentage of ingredient having leaked out of the capsules during one month storage, % In fabric softener 37° C. / Percentage of perfume having leaked out of the capsules upon one month storage, % In fabric softener at 37° C.: one month at 37° C.; for Percentage of perfume having leaked out of the capsules upon one month storage, % In fabric softener at 22° C. / Percentage of perfume having leaked out of the capsules upon one month storage, % In fabric softener at 37° C.: perfume of Example 9 encapsulated per Example 2, capsules at 1.25%; for Percentage of perfume having leaked out of the capsules upon one month storage, % In fabric softener at 22° C.: one month at 22° C.
Method: The concentrated fabric softener base was prepared by admixing the ingredients listed in Table 4, in the amounts indicated.

[4] = ingredients of the perfume of Example 9 (Table 9)
[5] = ingredients of the perfume of Example 6 (Table 1)

| Molecule | Percentage of ingredient having leaked out of the capsules during one month storage, % In concentrated Liquid Detergent 22° C. [1] [%] | Percentage of ingredient having leaked out of the capsules during one month storage, % In concentrated Liquid Detergent 37° C. [1] [%] | LogP [2] | Percentage of ingredient having leaked out of the capsules during one month storage, % In fabric softener 37° C. [3] [%] | Percentage of perfume having leaked out of the capsules upon one month storage, % In Concentrated Liquid Detergent at 22° C. [1] [%] | Percentage of perfume having leaked out of the capsules upon one month storage, % In Concentrated Liquid Detergent at 37° C. [1] [%] | LogP [2, 4] | Percentage of perfume having leaked out of the capsules upon one month storage, % In fabric softener at 22° C. [3] [%] | Percentage of perfume having leaked out of the capsules upon one month storage, % In fabric softener at 37° C. [3] [%] | LogP [2, 5] |
| --- | --- | --- | --- | --- | --- | --- | --- | --- | --- | --- |
| O=C(OC1CCCCC1)c1ccccc1O [Cyclohexyl salicylate] | 1 | 25 | 4.87 | 7 |  |  |  |  |  |  |
| Terpenyl acetate |  |  |  |  | 3 | 37 | 4.34 | 3 | 17 |  |
| CC(=O)O[C@@H]1C[C@H]2CC[C@]1(C)C2(C)C (racemic) [Isobornyl acetate] |  |  | 3.86 |  | 4 | 21 |  | 4 | 12 |  |
| CC1=CC(C)C(C=O)CC1 (stereo not drawn) [2,4-Dimethyl-3-cyclohexene-1-carbaldehyde] |  |  |  |  | 20 | 70 |  | 20 | 40 |  |
| (1′R,E)-3,3-dimethyl-5-(2′,2′,3′-trimethyl-3′-cyclopenten-1′-yl)-4-penten-2-ol [Polysantol ®] | 1 | 6 |  | 2 |  |  |  |  |  | 5.39 |
| CC(=O)OC/C=C(\C)CCC=C(C)C [Geranyl acetate] |  |  | 4.48 |  | 10 | 77 |  | 10 | 53 |  |
| CC(=O)C1(C)CC2=C(CCCC2(C)C)CC1C (stereo not drawn) [Iso E super ®, 1-(octahydro-2,3,8,8-tetramethyl-2-naphtalenyl)-1-ethanone] | 1 | 4 |  | 4 | 2 | 9 | 4.71 | 2 | 4 | 4.71 |
| C=CCOC(=O)CCCCCC [Allyl heptanoate] |  |  | 3.67 |  | 46 | 100 |  | 46 | 98 |  |
| CC1=CCC(C(C)CC2CCCC2=O)CC1 (stereo not drawn) [Nectalactone, (1′R)-2-[2-(4′-methyl-3′-cyclohexen-1′-yl)propyl]cyclopentanone] | 1 | 19 |  | 5 |  |  |  |  |  | 5.05 |
| CCCCCCC(C=O)=Cc1ccccc1 [Hexyl cinnamic aldehyde] |  |  | 4.82 |  | 2 | 46 |  | 2 | 18 |  |
| CC(=O)OC(C)(C)C1CCC(C)CC1 (stereo not drawn) [Dihydroterpenyl acetate] | 1 | 14 |  | 4 | 2 | 16 | 4.42 | 2 | 0 | 4.42 |
| CC(=O)OC1CC2CC1C1CC=CC21 (stereo not drawn) [Verdylate] | 1 | 14 |  | 5 |  |  |  |  |  | 3.76 |
| CCCCCCCCCCCCCC(=O)OC(C)C [Isopropyl myristate] |  |  | 7.17 |  |  |  |  |  |  |  |
| CCC(=O)OC1CC2CC1C1CC=CC21 (stereo not drawn) [Verdyl propionate] |  |  |  |  | 5 | 51 | 3.34 | 5 | 8 |  |
| CC1CCC(C(C)(C)O)CC1 (stereo not drawn) [Dihydroterpineol] |  |  |  |  | 13 |  | 3.42 | 13 | 85 |  |
| CC(C=O)Cc1ccc(C(C)(C)C)cc1 (stereo not drawn) [Lilial ®, 3-(4-tert-butylphenyl)-2-methylpropanal] | 1 | 14 | 4.36 | 3 | 0 | 18 | 4.36 | 0 | 7 |  |
| CC(=O)OC1CCCCC1C(C)(C)C (stereo not drawn) [Verdox ®, 2-Tert-butyl-1-cyclohexyl acetate] |  |  |  |  | 3 | 17 |  | 3 | 8 |  |
| O=C1CCCCCCCCC/C=C/CCCO1 [Habanolide ®, pentadecenolide] | 0 | 0 |  | 1 | 0 | 0 |  | 0 | 0 |  |
| C=CCOC(=O)COC1CCCCC1 [Cyclogalbanate, Allyl (cyclohexyloxy)-acetate] |  |  |  |  | 15 |  |  | 15 | 82 |  |
| CC1(O)CCC2C(=CCCC2(C)C)C1 (stereo not drawn) [Octalynol] |  |  |  | 3 |  |  |  |  |  | 4.28 |
| CC(=O)/C=C/C1=C(C)CCCC1(C)C [β-Ionone] | 1 | 14 |  | 5 | 3 | 27 |  | 3 | 13 |  |
| CC1(C)CCCC2(C)C1CCC1(C)OCCC12 (stereo not drawn) [Cetalox ®, dodecahydro-3a,6,6,9a-tetramethyl-naphtho[2,1-b]furan] | 0 | 4 |  | 3 |  |  |  |  |  |  |

Reference: US8426353B2, “Process for preparing polyurea microcapsules” (Firmenich SA, priority 2008, dated 2013)
